The source of these data is patent US11564955B2, “Composition including, as active ingredient, strain having ability to produce formic acid for preventing or treating obesity or metabolic syndromes caused by obesity” (KOREA FOOD RESEARCH INSTITUTE, priority 2016, dated 2023).

For the assay, the system named is high-fat diet-induced obesity animal models. As to conditions: oral formate vs high-fat diet control group. The text has this:
In order to investigate whether formic acid actually has an anti-obesity effect, the present inventors orally administered formate into high-fat diet-induced obesity animal models. […] The patent application procedure of the above-described contents is under way, separately from the present disclosure.

As for `O=CO` [formate], the blood cholesterol content entry is “significantly reduced”, the blood triglyceride content entry is recorded as “significantly reduced”, the body weight increase result was “inhibited” and the fat cell size result is given as “decreased”. Besides, the “kidney fat weight value” is recorded as “lowered”.
